Entries after “also recorded” stand apart in the source; their conditions may differ.
Molecular target: human α-synuclein recombinant aggregate (fibrils) (Homo sapiens, UniProt P37840)
Assay: Saturation and competition binding assay on α-synuclein aggregates (fibrils)
Conditions: Table 1; read-out: Affinity Ki, α-syn
Protocol: (§1) Saturation and competition binding assays of compounds in this invention towards synthetic amyloid peptides, human tau-441 recombinant and human α-synuclein recombinant aggregate (fibrils) were performed similar to previously reported assays (Manook et al. 2012 and Yousefi et al. 2011) and adapted to the change of peptides and label. Aggregates sample was deployed on 96-well cell culture plates (Greiner Bio-One, Germany) to a final reaction volume of […] per well using 8-channel electronic pipettes (Mettler Toledo, Germany) giving 12-24 octuples of data points per sample. Bound and free fractions were separated by vacuum filtration through polyethyleneimine-pretreated GF/B glass filtermats using a semi-automated Harvester 96 Mach II M (Tomtec, USA). Filters were cut and retained radioactivity determined using an automatic NaI(TI) well-type γ-detector (Wallac 1480-011 Automatic Gamma Counter, PerkinElmer, USA). Data were processed and analyzed using GraphPad Prism 6.0 (GraphPad Software, USA).

Row | SMILES | Ki
1 | CCCCOc1ccc(-c2csc(-c3nc(-c4ccc(OC)c(F)c4)cs3)n2)cc1 [Compound 5] | 328 nM
2 | COc1ccc(-c2csc(-c3nc(-c4ccc5c(c4)OCO5)cs3)n2)cc1F [Compound 3] | 3 nM
3 | CCOc1ccc(-c2csc(-c3nc(-c4ccc(OC)cc4)cs3)n2)cc1 [Compound 6] | 371 nM
4 | CN(C)c1ccc(-c2csc(-c3nc(-c4ccc(O)cc4)cs3)n2)cc1 [Compound 1] | > 1000 nM
5 | CCOc1ccc(-c2csc(-c3nc(-c4ccc5c(c4)OCO5)cs3)n2)cc1 [Compound 4] | 10 nM
6 | COc1ccc(-c2csc(-c3nc(-c4ccc5c(c4)OCO5)cs3)n2)cc1O [Compound 2] | 9 nM

Same assay, conditions: Table 3; read-out: Affinity Ki, α-syn

Row | SMILES | Ki
7 | CN(C)c1ccc(-c2csc(-c3nc(-c4ccc(F)nc4)cs3)n2)cc1 [Compound 21] | > 1000 nM
8 | Fc1ccc(-c2cc(-c3csc(-c4nc(-c5ccc6c(c5)OCO6)cs4)n3)on2)cc1 [Compound 22] | 6 nM
9 | COc1sc(-c2csc(-c3nc(-c4ccc5c(c4)OCO5)cs3)n2)cc1F [Compound 23] | 7 nM
10 | CN(C)c1ccc(-c2csc(-c3nc(-c4ccc(O)nc4)cs3)n2)cc1 [Compound 20] | > 1000 nM

Molecular target: Aβ1-42 (Homo sapiens, UniProt P05067)
Assay: Competition binding assay vs [^3H]PiB on synthetic amyloid peptide aggregates (Aβ1-42)
Conditions: 100 nM; Table 1
Protocol: as §1

Chain of Aβ1-42 (P05067 672-713): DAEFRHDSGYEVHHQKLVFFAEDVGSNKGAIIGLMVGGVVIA

Row | SMILES | inhibition at 0.1 µM
11 | CCCCOc1ccc(-c2csc(-c3nc(-c4ccc(OC)c(F)c4)cs3)n2)cc1 [Compound 5] | 45 ± 1%
12 | COc1ccc(-c2csc(-c3nc(-c4ccc5c(c4)OCO5)cs3)n2)cc1F [Compound 3] | 45 ± 2%
13 | CCOc1ccc(-c2csc(-c3nc(-c4ccc(OC)cc4)cs3)n2)cc1 [Compound 6] | 30 ± 1%
14 | CN(C)c1ccc(-c2csc(-c3nc(-c4ccc(O)cc4)cs3)n2)cc1 [Compound 1] | 88 ± 1%
15 | CCOc1ccc(-c2csc(-c3nc(-c4ccc5c(c4)OCO5)cs3)n2)cc1 [Compound 4] | 45 ± 2%
16 | COc1ccc(-c2csc(-c3nc(-c4ccc5c(c4)OCO5)cs3)n2)cc1O [Compound 2] | 86 ± 1%

Same assay, conditions: 100 nM; Table 3

Row | SMILES | inhibition at 0.1 µM
17 | CN(C)c1ccc(-c2csc(-c3nc(-c4ccc(F)nc4)cs3)n2)cc1 [Compound 21] | 88 ± 1%
18 | Fc1ccc(-c2cc(-c3csc(-c4nc(-c5ccc6c(c5)OCO6)cs4)n3)on2)cc1 [Compound 22] | 35 ± 2%
19 | COc1sc(-c2csc(-c3nc(-c4ccc5c(c4)OCO5)cs3)n2)cc1F [Compound 23] | 86 ± 1%
20 | CN(C)c1ccc(-c2csc(-c3nc(-c4ccc(O)nc4)cs3)n2)cc1 [Compound 20] | 89 ± 1%

Same assay, conditions: Table 1; read-out: Affinity Ki, Aβ1-42

Row | SMILES | Ki
21 | CCCCOc1ccc(-c2csc(-c3nc(-c4ccc(OC)c(F)c4)cs3)n2)cc1 [Compound 5] | 380 nM
22 | COc1ccc(-c2csc(-c3nc(-c4ccc5c(c4)OCO5)cs3)n2)cc1F [Compound 3] | 382 nM
23 | CN(C)c1ccc(-c2csc(-c3nc(-c4ccc(O)cc4)cs3)n2)cc1 [Compound 1] | 6 nM
24 | CCOc1ccc(-c2csc(-c3nc(-c4ccc5c(c4)OCO5)cs3)n2)cc1 [Compound 4] | 386 nM
25 | COc1ccc(-c2csc(-c3nc(-c4ccc5c(c4)OCO5)cs3)n2)cc1O [Compound 2] | 7 nM

Same assay, conditions: Table 3; read-out: Affinity Ki, Aβ1-42

Row | SMILES | Ki
26 | CN(C)c1ccc(-c2csc(-c3nc(-c4ccc(F)nc4)cs3)n2)cc1 [Compound 21] | 6 nM
27 | Fc1ccc(-c2cc(-c3csc(-c4nc(-c5ccc6c(c5)OCO6)cs4)n3)on2)cc1 [Compound 22] | 492 nM
28 | COc1sc(-c2csc(-c3nc(-c4ccc5c(c4)OCO5)cs3)n2)cc1F [Compound 23] | 10 nM
29 | CN(C)c1ccc(-c2csc(-c3nc(-c4ccc(O)nc4)cs3)n2)cc1 [Compound 20] | 6 nM

Molecular target: human tau-441 recombinant aggregate (fibrils) (Homo sapiens, UniProt P10636)
Assay: Saturation and competition binding assay on tau aggregates (fibrils)
Conditions: Table 1; read-out: Affinity Ki, T
Protocol: as §1

Chain of human tau-441 recombinant aggregate (fibrils) (P10636 1-441 isoform P10636-8): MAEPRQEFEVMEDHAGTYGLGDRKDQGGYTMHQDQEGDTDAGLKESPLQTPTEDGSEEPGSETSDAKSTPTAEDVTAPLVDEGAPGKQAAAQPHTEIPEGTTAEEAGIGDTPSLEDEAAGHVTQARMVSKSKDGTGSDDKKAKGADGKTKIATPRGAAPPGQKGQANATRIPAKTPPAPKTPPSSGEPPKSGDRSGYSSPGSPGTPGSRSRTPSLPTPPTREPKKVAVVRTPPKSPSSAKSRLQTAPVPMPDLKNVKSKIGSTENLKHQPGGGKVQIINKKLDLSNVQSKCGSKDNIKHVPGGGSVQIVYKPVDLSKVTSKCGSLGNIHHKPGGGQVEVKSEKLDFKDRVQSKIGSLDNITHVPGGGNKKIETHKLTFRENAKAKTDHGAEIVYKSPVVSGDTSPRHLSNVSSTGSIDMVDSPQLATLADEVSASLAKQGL

Row | SMILES | Ki
30 | CCCCOc1ccc(-c2csc(-c3nc(-c4ccc(OC)c(F)c4)cs3)n2)cc1 [Compound 5] | > 1000 nM
31 | COc1ccc(-c2csc(-c3nc(-c4ccc5c(c4)OCO5)cs3)n2)cc1F [Compound 3] | > 1000 nM
32 | CCOc1ccc(-c2csc(-c3nc(-c4ccc(OC)cc4)cs3)n2)cc1 [Compound 6] | > 1000 nM
33 | CN(C)c1ccc(-c2csc(-c3nc(-c4ccc(O)cc4)cs3)n2)cc1 [Compound 1] | > 1000 nM
34 | CCOc1ccc(-c2csc(-c3nc(-c4ccc5c(c4)OCO5)cs3)n2)cc1 [Compound 4] | 558 nM
35 | COc1ccc(-c2csc(-c3nc(-c4ccc5c(c4)OCO5)cs3)n2)cc1O [Compound 2] | 12 nM

Same assay, conditions: Table 3; read-out: Affinity Ki, τ

Row | SMILES | Ki
36 | CN(C)c1ccc(-c2csc(-c3nc(-c4ccc(F)nc4)cs3)n2)cc1 [Compound 21] | > 1000 nM
37 | Fc1ccc(-c2cc(-c3csc(-c4nc(-c5ccc6c(c5)OCO6)cs4)n3)on2)cc1 [Compound 22] | > 1000 nM
38 | COc1sc(-c2csc(-c3nc(-c4ccc5c(c4)OCO5)cs3)n2)cc1F [Compound 23] | 10 nM
39 | CN(C)c1ccc(-c2csc(-c3nc(-c4ccc(O)nc4)cs3)n2)cc1 [Compound 20] | > 1000 nM

Tested on: Aβ and NFT
Assay: Ex vivo validation on APP/PS1-tau triple transgenic mouse brain, cross-validated with thioflavin S and AT8
Assay type: in vivo
Conditions: APP/PS1-tau triple transgenic mouse, 24 month old, 45 min p.i., 0.6 mg in DMSO; cortical (FIG. 3) and hippocampus (FIG. 4) region

Row | SMILES | ex vivo brain staining, targets labelled
40 | COc1ccc(-c2csc(-c3nc(-c4ccc5c(c4)OCO5)cs3)n2)cc1O [Compound 2] | targets Aβ and NFT in the mouse model

Same assay, conditions: APP/PS1 and APP/PS1-tau triple tg mouse model of AD brain

Row | SMILES | specificity of binding, ex vivo and in vitro validation
41 | COc1ccc(-c2csc(-c3nc(-c4ccc5c(c4)OCO5)cs3)n2)cc1O [Compound 2] | specific binding of compound 2 to Aβ and NFT

Tested on: not listed separately
Assay: log P (octanol/PBS)
Assay type: physicochemical
Conditions: Table 2
From the text: Lipophilicity of CNS tracers plays an important role on blood brain barrier (BBB) and neuronal cells uptake. Therefore a library of ^18F-bithiazoles with high binding affinity towards Aβ1-40, Aβ1-42 τ, α-Syn were synthesized and log P (octanol/PBS) of these compounds measured (Table 2). The log P values were between 1.1-3.2.

Row | SMILES | logP
42 | Oc1ccc(-c2csc(-c3nc(-c4ccc(OCCOCCOCCF)cc4)cs3)n2)cc1 [Compound 17] | 1.8
43 | CN(C)c1ccc(-c2csc(-c3nc(-c4ccc(F)nc4)cs3)n2)cc1 [Compound 21] | 2.1
44 | Fc1ccc(-c2cc(-c3csc(-c4nc(-c5ccc6c(c5)OCO6)cs4)n3)on2)cc1 [Compound 22] | 3.2
45 | COc1sc(-c2csc(-c3nc(-c4ccc5c(c4)OCO5)cs3)n2)cc1F [Compound 23] | 2.9
46 | CN(C)c1ccc(-c2csc(-c3nc(-c4ccc(O)nc4)cs3)n2)cc1 [Compound 20] | 1.9

Molecular target: Aβ1-40 (Homo sapiens, UniProt P05067)
Assay: Competition binding assay vs [^3H]PiB on synthetic amyloid peptide aggregates (Aβ1-40)
Conditions: 100 nM; Table 1
Protocol: as §1

Chain of Aβ1-40 (P05067 672-711): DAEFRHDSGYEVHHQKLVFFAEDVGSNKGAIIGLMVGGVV

Row | SMILES | inhibition at 0.1 µM
47 | CCCCOc1ccc(-c2csc(-c3nc(-c4ccc(OC)c(F)c4)cs3)n2)cc1 [Compound 5] | 11%
48 | COc1ccc(-c2csc(-c3nc(-c4ccc5c(c4)OCO5)cs3)n2)cc1F [Compound 3] | 22 ± 1%
49 | CCOc1ccc(-c2csc(-c3nc(-c4ccc(OC)cc4)cs3)n2)cc1 [Compound 6] | 22 ± 1%
50 | CN(C)c1ccc(-c2csc(-c3nc(-c4ccc(O)cc4)cs3)n2)cc1 [Compound 1] | 94%
51 | CCOc1ccc(-c2csc(-c3nc(-c4ccc5c(c4)OCO5)cs3)n2)cc1 [Compound 4] | 11 ± 2%
52 | COc1ccc(-c2csc(-c3nc(-c4ccc5c(c4)OCO5)cs3)n2)cc1O [Compound 2] | 81 ± 2%

Same assay, conditions: 100 nM; Table 3

Row | SMILES | inhibition at 0.1 µM
53 | CN(C)c1ccc(-c2csc(-c3nc(-c4ccc(F)nc4)cs3)n2)cc1 [Compound 21] | 89 ± 2%
54 | Fc1ccc(-c2cc(-c3csc(-c4nc(-c5ccc6c(c5)OCO6)cs4)n3)on2)cc1 [Compound 22] | 20 ± 1%
55 | COc1sc(-c2csc(-c3nc(-c4ccc5c(c4)OCO5)cs3)n2)cc1F [Compound 23] | 87 ± 2%
56 | CN(C)c1ccc(-c2csc(-c3nc(-c4ccc(O)nc4)cs3)n2)cc1 [Compound 20] | 90%

Same assay, conditions: Table 1; read-out: Affinity Ki, Aβ1-40

Row | SMILES | Ki
57 | CN(C)c1ccc(-c2csc(-c3nc(-c4ccc(O)cc4)cs3)n2)cc1 [Compound 1] | 4 nM
58 | COc1ccc(-c2csc(-c3nc(-c4ccc5c(c4)OCO5)cs3)n2)cc1O [Compound 2] | 10 nM

Same assay, conditions: Table 3; read-out: Affinity Ki, Aβ1-40

Row | SMILES | Ki
59 | CN(C)c1ccc(-c2csc(-c3nc(-c4ccc(F)nc4)cs3)n2)cc1 [Compound 21] | 6 nM
60 | Fc1ccc(-c2cc(-c3csc(-c4nc(-c5ccc6c(c5)OCO6)cs4)n3)on2)cc1 [Compound 22] | > 500 nM
61 | COc1sc(-c2csc(-c3nc(-c4ccc5c(c4)OCO5)cs3)n2)cc1F [Compound 23] | 9 nM
62 | CN(C)c1ccc(-c2csc(-c3nc(-c4ccc(O)nc4)cs3)n2)cc1 [Compound 20] | 5 nM

Molecular target: T1, Aβ1-40, Aβ1-42, τ, α-Syn aggregates
T1 construct: other: span over all aggregate types, text summar
Assay: In vitro selectivity / binding profile across aggregates (potential use: targeting of)
Conditions: span over all aggregate types, summary of Table 1; read-out: in vitro affinity (Ki) to β-amyloids, NFT τ and synuclein aggregates
Protocol: as §1

Row | SMILES | Ki
63 | COc1ccc(-c2csc(-c3nc(-c4ccc5c(c4)OCO5)cs3)n2)cc1O [Compound 2] | 7 to 12 nM

Tested on: Aβ1-40, Aβ1-42, τ, α-Syn aggregates
Assay: as above
Conditions: Table 1
Protocol: as §1

Row | SMILES | Potential Use: Targeting of
64 | CCCCOc1ccc(-c2csc(-c3nc(-c4ccc(OC)c(F)c4)cs3)n2)cc1 [Compound 5] | Aβ, α-syn aggregates low binding site
65 | CCOc1ccc(-c2csc(-c3nc(-c4ccc(OC)cc4)cs3)n2)cc1 [Compound 6] | α-syn aggregates low binding site
66 | CN(C)c1ccc(-c2csc(-c3nc(-c4ccc(O)cc4)cs3)n2)cc1 [Compound 1] | Aβ
67 | COc1ccc(-c2csc(-c3nc(-c4ccc5c(c4)OCO5)cs3)n2)cc1O [Compound 2] | Aβ, α-syn, τ- aggregates (PAN- ligand)

Same assay, conditions: Table 2

Row | SMILES | Potential Use: Targeting of (in vitro selectivity)
68 | Oc1ccc(-c2csc(-c3nc(-c4ccc(OCCOCCOCCF)cc4)cs3)n2)cc1 [Compound 17] | The low binding site of Aβ
69 | CN(C)c1ccc(-c2csc(-c3nc(-c4ccc(F)nc4)cs3)n2)cc1 [Compound 21] | Aβ
70 | Fc1ccc(-c2cc(-c3csc(-c4nc(-c5ccc6c(c5)OCO6)cs4)n3)on2)cc1 [Compound 22] | α-syn
71 | COc1sc(-c2csc(-c3nc(-c4ccc5c(c4)OCO5)cs3)n2)cc1F [Compound 23] | PAN
72 | CN(C)c1ccc(-c2csc(-c3nc(-c4ccc(O)nc4)cs3)n2)cc1 [Compound 20] | Aβ

Same assay, conditions: Table 3

Row | SMILES | Potential Use: Targeting of
73 | CN(C)c1ccc(-c2csc(-c3nc(-c4ccc(F)nc4)cs3)n2)cc1 [Compound 21] | Aβ
74 | COc1sc(-c2csc(-c3nc(-c4ccc5c(c4)OCO5)cs3)n2)cc1F [Compound 23] | PAN
75 | CN(C)c1ccc(-c2csc(-c3nc(-c4ccc(O)nc4)cs3)n2)cc1 [Compound 20] | Aβ

Tested on: β-amyloids
Assay: In vitro staining of APP/PS1 tg mouse brain
Assay type: binding
Conditions: 24 month old, 1% solution of compound

Row | SMILES | in vitro staining of brain
76 | COc1ccc(-c2csc(-c3nc(-c4ccc5c(c4)OCO5)cs3)n2)cc1O [Compound 2] | specific binding to β-amyloids; also recorded: targets Aβ in the mouse model
